Reference: paper PMC7265341, “Quantifying CDK inhibitor selectivity in live cells” (Nature Communications, 2020)

Assays:
CDK1/Cyclin E1 = CDK1/Cyclin E1 (Homo sapiens, UniProt P06493); experiment: NanoBRET live-cell target engagement, CDK1-NanoLuc/Cyclin E1 in HEK-293; type: binding; settings: CDK1/E1, 10µM
CDK2/Cyclin E1 = CDK2/Cyclin E1 (Homo sapiens, UniProt P24941); experiment: NanoBRET live-cell target engagement, CDK2-NanoLuc/Cyclin E1 in HEK-293; type: binding; settings: CDK2/E1, 10µM
CDK3/Cyclin E1 = CDK3/Cyclin E1 (Homo sapiens, UniProt Q00526); experiment: NanoBRET live-cell target engagement, CDK3-NanoLuc/Cyclin E1 in HEK-293; type: binding; settings: CDK3/E1, 10µM
CDK3/Cyclin E1, sequence (Q00526 whole entry): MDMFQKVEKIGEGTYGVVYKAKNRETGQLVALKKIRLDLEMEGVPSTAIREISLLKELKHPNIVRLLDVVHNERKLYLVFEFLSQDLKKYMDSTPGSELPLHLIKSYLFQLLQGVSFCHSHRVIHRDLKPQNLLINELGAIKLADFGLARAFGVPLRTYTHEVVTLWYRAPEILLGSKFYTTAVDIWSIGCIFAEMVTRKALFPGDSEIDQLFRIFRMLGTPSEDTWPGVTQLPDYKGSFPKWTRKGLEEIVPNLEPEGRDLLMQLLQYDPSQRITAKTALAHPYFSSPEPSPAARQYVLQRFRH
CDK3/Cyclin E1, sequence (P24864 whole entry partner): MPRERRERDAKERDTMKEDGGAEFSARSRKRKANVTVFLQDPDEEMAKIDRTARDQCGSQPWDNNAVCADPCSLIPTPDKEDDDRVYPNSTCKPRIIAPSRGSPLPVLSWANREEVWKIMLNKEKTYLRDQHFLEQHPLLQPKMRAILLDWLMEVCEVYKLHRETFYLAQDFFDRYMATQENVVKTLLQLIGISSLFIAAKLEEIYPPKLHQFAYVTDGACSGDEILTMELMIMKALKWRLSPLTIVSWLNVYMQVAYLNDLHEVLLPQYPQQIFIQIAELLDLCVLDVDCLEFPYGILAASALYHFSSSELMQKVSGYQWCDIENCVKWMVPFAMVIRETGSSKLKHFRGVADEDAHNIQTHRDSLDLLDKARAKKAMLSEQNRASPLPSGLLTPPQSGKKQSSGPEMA

CDK4/Cyclin D1 = CDK4/Cyclin D1 (Homo sapiens, UniProt P11802); experiment: NanoBRET live-cell target engagement, NanoLuc-CDK4/Cyclin D1 in HEK-293; type: binding; settings: CDK4/D1, 10µM
CDK5/CDK5R1 = CDK5/CDK5R1 (Homo sapiens, UniProt Q00535); experiment: NanoBRET live-cell target engagement, CDK5-NanoLuc/CDK5R1 in HEK-293; type: binding; settings: CDK5/CDK5R1, 10µM
CDK6/Cyclin D1 = CDK6/Cyclin D1 (Homo sapiens, UniProt Q00534); experiment: NanoBRET live-cell target engagement, NanoLuc-CDK6/Cyclin D1 in HEK-293; type: binding; settings: CDK6/D1, 10µM
CDK7 = CDK7 (Homo sapiens, UniProt P50613); experiment: NanoBRET live-cell target engagement, NanoLuc-CDK7 in HEK-293; type: binding; settings: CDK7, 10µM
CDK7, sequence (P50613 whole entry): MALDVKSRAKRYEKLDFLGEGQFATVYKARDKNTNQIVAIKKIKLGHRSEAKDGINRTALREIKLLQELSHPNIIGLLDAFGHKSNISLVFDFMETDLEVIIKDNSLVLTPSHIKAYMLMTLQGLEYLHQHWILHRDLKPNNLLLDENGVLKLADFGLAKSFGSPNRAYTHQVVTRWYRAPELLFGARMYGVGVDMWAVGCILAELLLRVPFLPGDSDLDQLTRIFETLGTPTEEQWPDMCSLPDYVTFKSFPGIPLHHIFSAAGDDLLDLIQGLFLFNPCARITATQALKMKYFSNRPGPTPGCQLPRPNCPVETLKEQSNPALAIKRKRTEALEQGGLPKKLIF

CDK8/Cyclin C = CDK8/Cyclin C (Homo sapiens, UniProt P49336); experiment: NanoBRET live-cell target engagement, NanoLuc-CDK8/Cyclin C in HEK-293; type: binding; settings: CDK8/C, 10µM
CDK9/Cyclin K = CDK9/Cyclin K (Homo sapiens, UniProt P50750); experiment: NanoBRET live-cell target engagement, NanoLuc-CDK9/Cyclin K in HEK-293; type: binding; settings: CDK9/K, 10µM
CDK11A/Cyclin L2 = target: T1, CDK11A/Cyclin L2 (Homo sapiens, UniProt Q9UQ88); experiment: NanoBRET live-cell target engagement, CDK11A-NanoLuc/Cyclin L2 in HEK-293; type: binding; settings: CDK11a/L2, 10µM
T1 sequence (Q9UQ88 1-783): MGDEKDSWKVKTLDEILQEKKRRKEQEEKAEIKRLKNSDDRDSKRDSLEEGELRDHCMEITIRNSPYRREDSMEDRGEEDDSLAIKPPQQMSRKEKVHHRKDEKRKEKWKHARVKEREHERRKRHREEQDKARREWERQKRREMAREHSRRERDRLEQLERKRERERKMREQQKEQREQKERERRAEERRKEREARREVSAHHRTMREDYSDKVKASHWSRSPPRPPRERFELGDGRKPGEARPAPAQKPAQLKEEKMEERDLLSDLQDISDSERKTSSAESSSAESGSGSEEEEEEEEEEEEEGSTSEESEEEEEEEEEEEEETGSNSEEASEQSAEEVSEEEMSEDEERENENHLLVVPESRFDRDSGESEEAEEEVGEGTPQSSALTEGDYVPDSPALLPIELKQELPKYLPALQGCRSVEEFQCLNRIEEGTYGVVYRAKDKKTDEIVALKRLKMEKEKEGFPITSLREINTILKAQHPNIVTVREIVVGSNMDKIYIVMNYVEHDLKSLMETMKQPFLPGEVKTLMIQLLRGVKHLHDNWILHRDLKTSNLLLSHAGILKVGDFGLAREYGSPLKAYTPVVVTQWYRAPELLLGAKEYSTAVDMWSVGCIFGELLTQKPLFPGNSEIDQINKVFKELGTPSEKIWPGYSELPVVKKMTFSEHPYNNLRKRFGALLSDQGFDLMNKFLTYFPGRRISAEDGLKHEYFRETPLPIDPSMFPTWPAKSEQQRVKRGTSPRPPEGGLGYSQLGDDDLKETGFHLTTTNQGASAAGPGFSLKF

CDK11B/Cyclin L2 = CDK11B/Cyclin L2 (Homo sapiens, UniProt P21127); experiment: NanoBRET live-cell target engagement, CDK11B-NanoLuc/Cyclin L2 in HEK-293; type: binding; settings: CDK11b/L2, 10µM
CDK11B/Cyclin L2, sequence (P21127 1-782 isoform P21127-2): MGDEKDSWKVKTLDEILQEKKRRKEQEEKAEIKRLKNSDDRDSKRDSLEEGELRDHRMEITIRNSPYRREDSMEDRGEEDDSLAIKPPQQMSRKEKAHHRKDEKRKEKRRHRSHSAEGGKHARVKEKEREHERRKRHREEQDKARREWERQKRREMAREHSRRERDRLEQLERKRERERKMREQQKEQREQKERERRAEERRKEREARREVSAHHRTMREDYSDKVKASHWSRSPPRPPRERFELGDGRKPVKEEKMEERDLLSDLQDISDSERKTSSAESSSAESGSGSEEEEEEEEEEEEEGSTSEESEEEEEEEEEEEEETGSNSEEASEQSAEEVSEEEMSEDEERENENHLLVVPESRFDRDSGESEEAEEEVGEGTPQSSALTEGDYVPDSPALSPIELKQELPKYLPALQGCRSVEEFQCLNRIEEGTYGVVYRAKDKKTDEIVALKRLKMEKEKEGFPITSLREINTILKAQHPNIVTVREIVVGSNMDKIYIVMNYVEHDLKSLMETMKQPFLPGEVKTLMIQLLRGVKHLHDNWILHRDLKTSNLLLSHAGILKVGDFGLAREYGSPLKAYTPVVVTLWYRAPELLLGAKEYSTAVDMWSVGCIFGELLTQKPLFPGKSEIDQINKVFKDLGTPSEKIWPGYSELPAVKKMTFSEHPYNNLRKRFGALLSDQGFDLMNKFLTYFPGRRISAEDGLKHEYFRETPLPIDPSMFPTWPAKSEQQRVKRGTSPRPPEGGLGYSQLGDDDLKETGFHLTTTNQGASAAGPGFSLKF

CDK12/Cyclin K = CDK12/Cyclin K (Homo sapiens, UniProt Q9NYV4); experiment: NanoBRET live-cell target engagement, CDK12-NanoLuc/Cyclin K in HEK-293; type: binding; settings: CDK12/K, 10µM
CDK13/Cyclin K = CDK13/Cyclin K (Homo sapiens, UniProt Q14004); experiment: NanoBRET live-cell target engagement, CDK13-NanoLuc/Cyclin K in HEK-293; type: binding; settings: CDK13/K, 10µM
CDK14/Cyclin Y = CDK14/Cyclin Y (Homo sapiens, UniProt O94921); experiment: NanoBRET live-cell target engagement, CDK14-NanoLuc/Cyclin Y in HEK-293; type: binding; settings: CDK14/Y, 10µM
CDK14/Cyclin Y, sequence (O94921 whole entry): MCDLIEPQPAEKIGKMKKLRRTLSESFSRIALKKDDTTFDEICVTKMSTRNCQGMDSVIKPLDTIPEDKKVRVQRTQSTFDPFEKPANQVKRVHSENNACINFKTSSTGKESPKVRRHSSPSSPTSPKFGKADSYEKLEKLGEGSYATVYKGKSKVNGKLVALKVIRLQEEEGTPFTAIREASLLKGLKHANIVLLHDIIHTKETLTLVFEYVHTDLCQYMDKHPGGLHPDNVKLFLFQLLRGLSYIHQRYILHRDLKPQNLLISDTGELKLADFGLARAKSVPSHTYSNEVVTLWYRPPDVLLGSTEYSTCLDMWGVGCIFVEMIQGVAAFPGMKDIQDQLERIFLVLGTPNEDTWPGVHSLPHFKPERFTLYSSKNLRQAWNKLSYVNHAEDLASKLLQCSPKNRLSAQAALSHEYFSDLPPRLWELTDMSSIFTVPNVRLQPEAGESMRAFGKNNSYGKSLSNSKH
CDK14/Cyclin Y, sequence (Q8ND76 whole entry partner): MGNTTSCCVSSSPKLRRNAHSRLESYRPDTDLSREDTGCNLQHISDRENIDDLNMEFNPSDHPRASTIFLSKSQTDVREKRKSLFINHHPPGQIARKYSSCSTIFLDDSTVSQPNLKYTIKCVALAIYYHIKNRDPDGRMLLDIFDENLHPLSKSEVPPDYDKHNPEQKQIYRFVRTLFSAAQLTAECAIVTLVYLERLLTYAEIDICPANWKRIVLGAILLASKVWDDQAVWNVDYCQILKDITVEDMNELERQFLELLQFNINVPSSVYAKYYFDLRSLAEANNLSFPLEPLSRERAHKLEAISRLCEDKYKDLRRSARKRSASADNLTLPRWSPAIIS

CDK15/Cyclin Y = CDK15/Cyclin Y (Homo sapiens, UniProt Q96Q40); experiment: NanoBRET live-cell target engagement, NanoLuc-CDK15/Cyclin Y in HEK-293; type: binding; settings: CDK15/Y, 10µM
CDK15/Cyclin Y, sequence (Q96Q40 whole entry): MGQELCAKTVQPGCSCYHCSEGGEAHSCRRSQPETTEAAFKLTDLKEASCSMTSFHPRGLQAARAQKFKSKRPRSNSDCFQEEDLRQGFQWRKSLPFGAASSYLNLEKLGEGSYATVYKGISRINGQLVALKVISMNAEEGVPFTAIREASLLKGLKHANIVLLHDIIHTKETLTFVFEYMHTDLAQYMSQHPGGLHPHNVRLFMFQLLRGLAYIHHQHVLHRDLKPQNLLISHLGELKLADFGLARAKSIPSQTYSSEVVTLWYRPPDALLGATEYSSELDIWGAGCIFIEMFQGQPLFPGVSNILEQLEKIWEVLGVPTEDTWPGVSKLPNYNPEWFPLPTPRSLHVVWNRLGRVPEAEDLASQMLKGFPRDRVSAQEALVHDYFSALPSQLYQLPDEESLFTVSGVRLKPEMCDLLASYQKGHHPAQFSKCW
CDK15/Cyclin Y, sequence (Q8ND76 whole entry partner): as the sequence (Q8ND76 whole entry partner) above

CDK16/Cyclin Y = CDK16/Cyclin Y (Homo sapiens, UniProt Q00536); experiment: NanoBRET live-cell target engagement, CDK16-NanoLuc/Cyclin Y in HEK-293; type: binding; settings: CDK16/Y; 10µM
CDK17/Cyclin Y = CDK17/Cyclin Y (Homo sapiens, UniProt Q00537); experiment: NanoBRET live-cell target engagement, CDK17-NanoLuc/Cyclin Y in HEK-293; type: binding; settings: CDK17/Y, 10µM
CDK17/Cyclin Y, sequence (Q00537 whole entry): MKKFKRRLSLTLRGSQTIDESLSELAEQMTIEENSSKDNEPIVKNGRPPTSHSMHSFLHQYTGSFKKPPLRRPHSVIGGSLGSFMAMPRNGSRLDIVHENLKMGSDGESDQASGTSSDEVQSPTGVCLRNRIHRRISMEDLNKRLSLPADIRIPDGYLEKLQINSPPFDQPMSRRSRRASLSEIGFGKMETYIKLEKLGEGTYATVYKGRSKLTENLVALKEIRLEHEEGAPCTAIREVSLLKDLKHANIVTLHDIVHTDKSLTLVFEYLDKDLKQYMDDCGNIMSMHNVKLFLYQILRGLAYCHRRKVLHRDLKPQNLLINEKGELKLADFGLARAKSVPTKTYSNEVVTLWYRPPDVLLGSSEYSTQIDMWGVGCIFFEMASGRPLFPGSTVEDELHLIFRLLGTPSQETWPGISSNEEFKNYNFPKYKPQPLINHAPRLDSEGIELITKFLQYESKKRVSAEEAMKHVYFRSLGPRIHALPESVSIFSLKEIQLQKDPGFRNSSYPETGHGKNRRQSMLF
CDK17/Cyclin Y, sequence (Q8ND76 whole entry partner): as the sequence (Q8ND76 whole entry partner) above

CDK18/Cyclin Y = CDK18/Cyclin Y (Homo sapiens, UniProt Q07002); experiment: NanoBRET live-cell target engagement, CDK18-NanoLuc/Cyclin Y in HEK-293; type: binding; settings: CDK18/Y, 10µM
CDK18/Cyclin Y, sequence (Q07002 whole entry): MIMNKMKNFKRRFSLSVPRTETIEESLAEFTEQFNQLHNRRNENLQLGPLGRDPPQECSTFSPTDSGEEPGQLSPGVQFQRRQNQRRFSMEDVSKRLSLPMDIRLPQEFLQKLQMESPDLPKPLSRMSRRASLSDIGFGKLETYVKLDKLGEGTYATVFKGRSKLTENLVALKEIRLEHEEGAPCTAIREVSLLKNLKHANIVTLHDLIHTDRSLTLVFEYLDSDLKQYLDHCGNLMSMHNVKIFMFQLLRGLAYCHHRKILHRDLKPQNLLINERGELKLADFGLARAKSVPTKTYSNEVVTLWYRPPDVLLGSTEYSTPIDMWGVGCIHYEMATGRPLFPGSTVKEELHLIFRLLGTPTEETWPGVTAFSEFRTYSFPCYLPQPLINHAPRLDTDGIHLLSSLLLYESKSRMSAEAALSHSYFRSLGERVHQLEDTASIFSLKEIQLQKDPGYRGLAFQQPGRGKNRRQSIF
CDK18/Cyclin Y, sequence (Q8ND76 whole entry partner): as the sequence (Q8ND76 whole entry partner) above

CDK20/Cyclin H = CDK20/Cyclin H (Homo sapiens, UniProt Q8IZL9); experiment: NanoBRET live-cell target engagement, NanoLuc-CDK20/Cyclin H in HEK-293; type: binding; settings: CDK20/H; 10µM
CDK19/Cyclin C = CDK19/Cyclin C (Homo sapiens, UniProt Q9BWU1); experiment: NanoBRET live-cell target engagement, NanoLuc-CDK19/Cyclin C in HEK-293; settings: CDK19/C, 10µM
CDK10/Cyclin L2 = CDK10/Cyclin L2 (Homo sapiens, UniProt Q15131); experiment: NanoBRET live-cell target engagement, CDK10-NanoLuc/Cyclin L2 in HEK-293; settings: CDK10/L2, 10µM
CDK10/Cyclin L2, sequence (Q15131 whole entry): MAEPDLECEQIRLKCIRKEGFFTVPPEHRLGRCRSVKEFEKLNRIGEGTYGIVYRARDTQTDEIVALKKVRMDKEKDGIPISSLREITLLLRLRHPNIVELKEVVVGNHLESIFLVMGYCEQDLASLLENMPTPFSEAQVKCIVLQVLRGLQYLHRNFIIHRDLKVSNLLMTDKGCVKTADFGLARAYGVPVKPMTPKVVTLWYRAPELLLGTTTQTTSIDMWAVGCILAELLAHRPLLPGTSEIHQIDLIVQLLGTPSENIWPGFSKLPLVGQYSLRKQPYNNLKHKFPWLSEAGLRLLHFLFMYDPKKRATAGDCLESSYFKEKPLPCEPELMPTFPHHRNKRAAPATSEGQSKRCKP

CDK1/Cyclin E1, sequence (P06493 whole entry): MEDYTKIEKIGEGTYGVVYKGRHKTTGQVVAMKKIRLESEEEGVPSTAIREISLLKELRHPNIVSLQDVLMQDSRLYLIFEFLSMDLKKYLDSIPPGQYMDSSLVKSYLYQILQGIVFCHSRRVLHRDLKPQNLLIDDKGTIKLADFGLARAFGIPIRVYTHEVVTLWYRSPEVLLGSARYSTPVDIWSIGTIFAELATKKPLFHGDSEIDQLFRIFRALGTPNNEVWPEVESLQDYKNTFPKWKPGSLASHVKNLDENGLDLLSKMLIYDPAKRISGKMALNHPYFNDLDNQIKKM
CDK1/Cyclin E1, sequence (P24864 whole entry partner): as the sequence (P24864 whole entry partner) above

- Inhibition at 10µM (%) Replicate 1 (CDK1/Cyclin E1): 46.5%
- Inhibition at 10µM (%) Replicate 2 (CDK1/Cyclin E1): 41.5%
- Inhibition at 10µM (%) Average (CDK1/Cyclin E1; average of replicates): 44.0%
- Inhibition at 10µM (%) Replicate 1 (CDK2/Cyclin E1): 75.6%
- Inhibition at 10µM (%) Replicate 2 (CDK2/Cyclin E1): 76.1%
- Inhibition at 10µM (%) Average (CDK2/Cyclin E1; average of replicates): 75.9%
- Inhibition at 10µM (%) Replicate 1 (CDK3/Cyclin E1): 72.1%
- Inhibition at 10µM (%) Replicate 2 (CDK3/Cyclin E1): 71.8%
- Inhibition at 10µM (%) Average (CDK3/Cyclin E1; average of replicates): 72.0%
- Inhibition at 10µM (%) Replicate 1 (CDK4/Cyclin D1): 19.9%
- Inhibition at 10µM (%) Replicate 2 (CDK4/Cyclin D1): 22.3%
- Inhibition at 10µM (%) Average (CDK4/Cyclin D1; average of replicates): 21.1%
- Inhibition at 10µM (%) Replicate 1 (CDK5/CDK5R1): 69.5%
- Inhibition at 10µM (%) Replicate 2 (CDK5/CDK5R1): 71.6%
- Inhibition at 10µM (%) Average (CDK5/CDK5R1; average of replicates): 70.6%
- Inhibition at 10µM (%) Replicate 1 (CDK6/Cyclin D1): 6.0%
- Inhibition at 10µM (%) Replicate 2 (CDK6/Cyclin D1): 6.7%
- Inhibition at 10µM (%) Average (CDK6/Cyclin D1; average of replicates): 6.4%
- Inhibition at 10µM (%) Replicate 1 (CDK7): 45.0%
- Inhibition at 10µM (%) Replicate 2 (CDK7): 59.3%
- Inhibition at 10µM (%) Average (CDK7; average of replicates): 52.2%
- Inhibition at 10µM (%) Replicate 1 (CDK8/Cyclin C): 6.6%
- Inhibition at 10µM (%) Replicate 2 (CDK8/Cyclin C): -1.1%
- Inhibition at 10µM (%) Average (CDK8/Cyclin C; average of replicates): 2.7%
- Inhibition at 10µM (%) Replicate 1 (CDK9/Cyclin K): 18.8%
- Inhibition at 10µM (%) Replicate 2 (CDK9/Cyclin K): 27.7%
- Inhibition at 10µM (%) Average (CDK9/Cyclin K; average of replicates): 23.2%
- Inhibition at 10µM (%) Replicate 1 (CDK11A/Cyclin L2): 8.6%
- Inhibition at 10µM (%) Replicate 2 (CDK11A/Cyclin L2): 33.3%
- Inhibition at 10µM (%) Average (CDK11A/Cyclin L2; average of replicates): 21.0%
- Inhibition at 10µM (%) Replicate 1 (CDK11B/Cyclin L2): 11.4%
- Inhibition at 10µM (%) Replicate 2 (CDK11B/Cyclin L2): 7.8%
- Inhibition at 10µM (%) Average (CDK11B/Cyclin L2; average of replicates): 9.6%
- Inhibition at 10µM (%) Replicate 1 (CDK12/Cyclin K): 4.1%
- Inhibition at 10µM (%) Replicate 2 (CDK12/Cyclin K): -13.6%
- Inhibition at 10µM (%) Average (CDK12/Cyclin K; average of replicates): -4.7%
- Inhibition at 10µM (%) Replicate 1 (CDK13/Cyclin K): 7.7%
- Inhibition at 10µM (%) Replicate 2 (CDK13/Cyclin K): -21.5%
- Inhibition at 10µM (%) Average (CDK13/Cyclin K; average of replicates): -6.9%
- Inhibition at 10µM (%) Replicate 1 (CDK14/Cyclin Y): 8.2%
- Inhibition at 10µM (%) Replicate 2 (CDK14/Cyclin Y): 16.5%
- Inhibition at 10µM (%) Average (CDK14/Cyclin Y; average of replicates): 12.3%
- Inhibition at 10µM (%) Replicate 1 (CDK15/Cyclin Y): 25.0%
- Inhibition at 10µM (%) Replicate 2 (CDK15/Cyclin Y): 29.8%
- Inhibition at 10µM (%) Average (CDK15/Cyclin Y; average of replicates): 27.4%
- Inhibition at 10µM (%) Replicate 1 (CDK16/Cyclin Y): 15.7%
- Inhibition at 10µM (%) Replicate 2 (CDK16/Cyclin Y): 16.9%
- Inhibition at 10µM (%) Replicate 1 (CDK17/Cyclin Y): 29.1%
- Inhibition at 10µM (%) Replicate 2 (CDK17/Cyclin Y): 25.1%
- Inhibition at 10µM (%) Average (CDK17/Cyclin Y; average of replicates): 27.1%
- Inhibition at 10µM (%) Replicate 1 (CDK18/Cyclin Y): 37.9%
- Inhibition at 10µM (%) Replicate 2 (CDK18/Cyclin Y): 40.9%
- Inhibition at 10µM (%) Average (CDK18/Cyclin Y; average of replicates): 39.4%
- Inhibition at 10µM (%) Replicate 1 (CDK20/Cyclin H): 16.2%
- Inhibition at 10µM (%) Replicate 2 (CDK20/Cyclin H): 18.8%
- Inhibition at 10µM (%) Replicate 1 (CDK19/Cyclin C): 16.0%
- Inhibition at 10µM (%) Replicate 2 (CDK19/Cyclin C): -0.8%
- Inhibition at 10µM (%) Average (CDK19/Cyclin C; average of replicates): 7.6%
- Inhibition at 10µM (%) Replicate 1 (CDK10/Cyclin L2): 13.4%
- Inhibition at 10µM (%) Replicate 2 (CDK10/Cyclin L2): 27.0%
- Inhibition at 10µM (%) Average (CDK10/Cyclin L2; average of replicates): 20.2%
SMILES: CCC(CO)Nc1nc(Nc2cccc(-c3ccccn3)c2)c2ncn(C(C)C)c2n1.Cl.O [(R) - DRF053]
